Source: patent US12018305B2, “Process for production of nigericin from Streptomyces sp. MCC-0151” (Council of Scientific & Industrial Research, priority 2018, dated 2024)
Converted amounts (≈) assume the structure as drawn. Where two headings read alike, the source gives them in different places.

What was measured:
[1] = test system: Staphylococcus aureus (ATCC 29737); assay: Antibacterial activity (MIC) against Staphylococcus aureus; type: cell-based
Description: (§1) FIG. 1A depicts the inhibition of S. aureus growth at varying concentrations of nigericin from Streptomyces sp. MCC-0151. FIG. 1B depicts the antibacterial activity of nigericin from Streptomyces sp. MCC0151 against S. aureus.

[2] = test system: Staphylococcus epidermidis (ATCC 12228); assay: Antibacterial activity (MIC) against Staphylococcus epidermidis; type: cell-based; details: ATCC12228, range stated over five gram-positive microorganisms, read-out: minimum inhibitory concentration (MIC)
[3] = test system: Micrococcus luteus (ATCC 11880); assay: Antibacterial activity (MIC) against Micrococcus luteus; type: cell-based; details: ATCC11880, range stated over five gram-positive microorganisms, read-out: minimum inhibitory concentration (MIC)
Description: as §1

[4] = test system: Bacillus cereus (ATCC 11778); assay: Antibacterial activity (MIC) against Bacillus cereus; type: cell-based; details: ATCC11778, range stated over five gram-positive microorganisms, read-out: minimum inhibitory concentration (MIC)
[5] = test system: Listeria monocytogenes (ATCC 19111); assay: Antibacterial activity (MIC) against Listeria monocytogenes; type: cell-based; details: ATCC19111, range stated over five gram-positive microorganisms, read-out: minimum inhibitory concentration (MIC)
Description: as §1

P. falciparum strain 3D7 = assay: Antimalarial activity: inhibition of blood-stage malaria parasite growth (SybrGreen I); type: cell-based; details: Plasmodium falciparum, 60 h incubation
Protocol: Asexual stage of P. falciparum strain 3D7 (received as a gift from collaborator team) was maintained under standard conditions at 2% hematocrit with 0+ human erythrocytes (Blood obtained from Poona Serological Trust Blood Bank, Pune) in RPMI1640 containing 15 mM HEPES, 50 mg/L Gentamicin sulfate 10 mg/L hypoxanthine, 2 g/L sodium bicarbonate (Sigma-Aldrich) and 2.5 g/L AlbuMAX II (Thermo Fisher Scientific). Parasites were synchronized using 5% sorbitol (Sigma-Aldrich) for the enrichment of ring-stage parasite. In brief, P. falciparum cultures were collected by centrifugation at 1,000 g for 5 min at 25° C. and the parasitized RBC pellet was resuspended 5% sorbitol, followed by incubation at 37° C. for 10 min. Following incubation, the cells were pelleted and washed with complete medium, prior to placing the parasites back into culture flasks at 2% hematocrit and 2% parasitemia.
Assays were typically set up in 96-well plate format and 2% of parasitized culture was used per well. The stock solution of the nigericin was prepared in DMSO, and so 0.5% DMSO (equivalent to the DMSO present in the nigericin-treated samples) treatment was used as a control. […]

murine splenocytes = type: cell-based
Description: FIG. 3 depicts a comparison of the in-vitro toxicity of nigericin isolated from Streptomyces sp. MCC-0151 and commercially available Nigericin on murine splenocytes. ‘▴’ represents nigericin from Streptomyces sp. MCC 0151 and ‘▾’ represents standard Nigericin.
MCCO151 and Sigma standard nigericin. Nigericin produced from Streptomyces sp.

in vivo = assay: in vivo; set-up: species or system Sprague Dawley rats; details: male, Sprague Dawley, rat
Protocol: Oral solution bioavailability was 2%.
Plasma Pharmacokinetics study of Nigericin was carried out using three different routes of administration i.e. Intravenous (IV), Oral (O) and Intraperitoneal (IP). Based on above study, the intraperitoneal route of administration was selected to study the toxicokinetic profiling of Nigericin.

[6] = Toxicokinetic study, 14-day repeated intraperitoneal administration in Sprague-Dawley rats; type: in vivo; details: for Tmax / AUClast / Cmax / AUC(0-t) / Cmax at 14 day / Tmax at 14 day: Sprague-Dawley, ip; for AUC(0-t): AUClast
Protocol: (§2) A 14-day repeat-intraperitoneal administration protocol was used for carrying out toxicokinetic studies with nigericin. Male and female animals were divided into three groups each based on the dose of nigericin administered (0.5, 1.5 and 5 mg/kg/day). Each group received the administration of the compound at the same dose every day for 14 days. The toxicokinetic parameters were quantified following the first (i.e., day-1) and last (i.e., day-14) administration of nigericin, and the findings are tabulated in Table-3. Following administration on day-1, nigericin was quantifiable in the plasma of the animals for up to 24 h, in all three dose-categories, in both genders. After the administration of the second dose on day-14, plasma concentrations were quantifiable up to 8 h for 0.5 mg/kg/day dose category and up to 24 h for 1.5 mg/kg/day dose category, in both genders.

Sprague-Dawley rats = assay: 14-day repeated intraperitoneal dose toxicity in Sprague-Dawley rats; type: in vivo; details: for mortality: female rats, 5 mg/kg/day IP, before Day 14, 5 mg/kg/day
Protocol: as §2
The 5 mg/kg/day was lethal in females.

[7] = female, rat, in vivo, 0.5 mg/kg/day
[8] = female, rat, in vivo, 1.5 mg/kg/day
[9] = male, rat, in vivo, 0.5 mg/kg/day, Cmax
[10] = male, rat, in vivo, 0.5 mg/kg/day, Tmax
[11] = male, rat, in vivo, 1.5 mg/kg/day
[12] = male, rat, in vivo, 1.5 mg/kg/day, Cmax
[13] = male, rat, in vivo, 1.5 mg/kg/day, Tmax
[14] = male, rat, in vivo, 5 mg/kg/day
[15] = male, rat, in vivo, 5 mg/kg/day, Cmax
[16] = male, rat, in vivo, 5 mg/kg/day, Tmax
[17] = 14-day repeated IP, conclusion of study

Work on `CO[C@@H]1C[C@@H](C[C@H]2CC[C@H](C)[C@H]([C@@H](C)C(=O)O)O2)O[C@]2(O[C@](C)([C@H]3CC[C@@](C)([C@@H]4O[C@@H]([C@H]5O[C@@](O)(CO)[C@H](C)C[C@@H]5C)C[C@@H]4C)O3)C[C@H]2C)[C@@H]1C` [nigericin] yielded an MIC ([1]; ATCC29737, against Staphylococcus aureus, read-out: MIC) of 0.21 µg/mL, an MIC ([1]; ATCC29737, against Staphylococcus aureus, read-out: MIC Conc.) of 0.288 µM and an MIC ([1]; Staphylococcus aureus, ATCC29737, range stated over five gram-positive microorganisms, read-out: minimum inhibitory concentration (MIC)) of 0.25 to 0.5 µM. The MIC ([1]; against Staphylococcus aureus, read-out: MIC) was 0.21 µg/mL, the MIC [2] was 0.25 to 0.5 µM (≈ 0.181 to 0.362 µg/mL) and the MIC [3] was 0.25 to 0.5 µM (≈ 0.181 to 0.362 µg/mL). For the same compound, the MIC [4] was 0.25 to 0.5 µM (≈ 0.181 to 0.362 µg/mL), the MIC [5] was 0.25 to 0.5 µM (≈ 0.181 to 0.362 µg/mL) and the IC50 (P. falciparum strain 3D7; read-out: IC50 against P. falciparum) was about 0.986 nM. For the same compound, the EC50 (P. falciparum strain 3D7; blood-stage parasite growth, n=3) was 2.4 nM, the “toxicity against murine splenocytes compared to commercially available nigericin (Sigma)” value (murine splenocytes) was “no statistically significant difference” and the Tmax (in vivo; ip, 2 mg/kg) was 15 min. For the same compound, the “plasma concentrations quantifiable up to” value (in vivo; ip, 2 mg/kg) was “up to 24 hr”, the “Vss relative to normal volume of total body water (0.7 L/kg)” value (in vivo; iv, 2 mg/kg) was 2.3 fold and the clearance (in vivo; iv, 2 mg/kg) was 15.1 mL/min/kg. It also gave a half-life (in vivo; iv, 2 mg/kg) of 212 min, a Tmax (in vivo; po, 10 mg/kg) of 37.8 min and a bioavailability (in vivo; po, 10 mg/kg) of 2%. For the same compound, the “plasma concentrations quantifiable up to” value (in vivo; po, 10 mg/kg) was “up to 24 hr”, the “male/female exposure ratio (AUClast)” value ([6]; Day 1, 0.5 mg/kg/day) was 2.11 and the “male/female exposure ratio (AUClast)” value ([6]; Day 1, 1.5 mg/kg/day) was 0.68. The “male/female exposure ratio (AUClast)” value ([6]; Day 1, 5 mg/kg/day) was 1.15, the “male/female exposure ratio (AUClast)” value ([6]; Day 14, 0.5 mg/kg/day) was 0.90 and the “male/female exposure ratio (AUClast)” value ([6]; Day 14, 1.5 mg/kg/day) was 1.21. For the same compound, the Tmax ([6]; rat, in vivo, Mean Tmax across the doses) was 4.8 to 25.2 min, the “accumulation following repeated intraperitoneal dose administration” value ([6]; across the doses, both genders) was “No trend of accumulation” and the “quantifiable in plasma for up to” value ([6]; day-1, all three doses (0.5, 1.5, 5 mg/kg/day IP), both genders) was “up to 24 h”. For the same compound, the “accumulation ratio (AUClast) on Day 14” value ([6]; female, 0.5 mg/kg/day) was 1.04, the “accumulation ratio (AUClast) on Day 14” value ([6]; female, 1.5 mg/kg/day) was 0.51 and the Dose exposure ratio ([6]; female, Day 1, dose increase 0.5 to 1.5 mg/kg/day) was 5.91. It also gave a Dose exposure ratio ([6]; female, Day 1, dose increase 1.5 to 5 mg/kg/day) of 2.33, a Dose exposure ratio ([6]; female, Day 14, dose increase 0.5 to 1.5 mg/kg/day) of 2.89 and an AUClast [6, 7] of 549.87 ng·h/mL. For the same compound, the Cmax [6, 7] was 222.17 ng/mL, the AUC(0-t) [6, 7] was 527 ng·h/mL and the Cmax ([6]; female, rat, in vivo, 0.5 mg/kg/day, Cmax) was 188 ng/mL. For the same compound, the Tmax ([6]; female, rat, in vivo, 0.5 mg/kg/day, Tmax) was 19.8 min, the AUClast [6, 8] was 1589.38 ng·h/mL and the Cmax [6, 8] was 710.63 ng/mL. It also gave an AUC(0-t) [6, 8] of 3120 ng·h/mL, a Cmax ([6]; female, rat, in vivo, 1.5 mg/kg/day, Cmax) of 840 ng/mL and an AUC(0-t) ([6]; female, rat, in vivo, 5 mg/kg/day) of 7260 ng·h/mL. For the same compound, the Cmax ([6]; female, rat, in vivo, 5 mg/kg/day, Cmax) was 2440 ng/mL, the Tmax ([6]; female, rat, in vivo, 5 mg/kg/day, Tmax) was 19.8 min and the “accumulation ratio (AUClast) on Day 14” value ([6]; male, 0.5 mg/kg/day) was 0.44. The “accumulation ratio (AUClast) on Day 14” value ([6]; male, 1.5 mg/kg/day) was 0.90, the “accumulation ratio (AUClast) on Day 14” value ([6]; male, 5 mg/kg/day) was 0.98 and the Dose exposure ratio ([6]; male, Day 1, dose increase 0.5 to 1.5 mg/kg/day) was 1.91. For the same compound, the Dose exposure ratio ([6]; male, Day 1, dose increase 1.5 to 5 mg/kg/day) was 3.93, the Dose exposure ratio ([6]; male, Day 14, dose increase 0.5 to 1.5 mg/kg/day) was 3.89 and the Dose exposure ratio ([6]; male, Day 14, dose increase 1.5 to 5 mg/kg/day) was 4.26. It also gave a Cmax [6, 9] of 403 ng/mL, a Cmax at 14 day [6, 9] of 200 ng/mL and a Tmax [6, 10] of 15 min. It also gave a Tmax at 14 day [6, 10] of 16.8 min, an AUClast [6, 11] of 2126.23 ng·h/mL and an AUC(0-t) [6, 11] of 1920 ng·h/mL. It also gave a Cmax [6, 12] of 830 ng/mL, a Cmax at 14 day [6, 12] of 815 ng/mL and a Tmax [6, 13] of 19.8 min. The Tmax at 14 day [6, 13] was 4.8 min, the AUClast [6, 14] was 8347.82 ng·h/mL and the AUC(0-t) [6, 14] was 8190 ng·h/mL. For the same compound, the Cmax [6, 15] was 2390 ng/mL, the Cmax at 14 day [6, 15] was 3060 ng/mL and the Tmax [6, 16] was 19.8 min. For the same compound, the Tmax at 14 day [6, 16] was 19.8 min, the “plasma exposure (AUClast) with increase in dose” value ([6]; rat, in vivo) was “dose-related increase” and the abnormal clinical signs (Sprague-Dawley rats; 0.5 mg/kg/day IP, 14 consecutive days) was “did not result in abnormal clinical signs”. For the same compound, the “dose that can be lethal” value (Sprague-Dawley rats; [17]) was “above 5 mg/kg”, the “dose that will not cause any clinical adversity” value (Sprague-Dawley rats; [17]) was under 1.5 mg/kg and the mortality (Sprague-Dawley rats) was “Mortality was observed”. The mortality (Sprague-Dawley rats; listed as Nigericin) was “lethal”, the mortalities (Sprague-Dawley rats; up to 1.5 mg/kg/day IP, 14 consecutive days) was “did not result in” and the “effect on ophthalmoscopy, coagulation, urinalysis and reticulocytes count” value (Sprague-Dawley rats; up to highest surviving dose 1.5 mg/kg/day IP) was “no test item related effect”.
